# According to article PMC2645951 (Bioconjugate chemistry, 2008):
# Where two headings read alike, the source gives them in different places. Where a SMILES comes first, the peptide text is derived from it. The star is where a group is joined. X1 = COc1cc2c3cc1OCCOc1cc4c(cc1OC)Cc1cc5c(OC)cc1Cc1cc(c(OCc6cn(CCOCCOCCOCCOCCOCCOCCOCCOCCNC(=O)COCC(=O)*)nn6)cc1C4)OCCOc1cc(c(cc1OC)Cc1cc(c(OC)cc1C3)OCCO5)C2
# Columns and labels:
# [1] = background statement of the introduction, no reference given; cited from earlier work
# Water solubility = type: physicochemical
# HEK cells = conditions: over a similar range of concentrations; cited from earlier work
structure (smiles),measurement,setting,value
COc1cc2c3cc1OCCOc1cc4c(cc1OC)Cc1cc5c(OC)cc1Cc1cc(c(OC)cc1C4)OCCOc1cc(c(cc1OC)C3)Cc1cc(OC)c(cc1C2)OCCO5 [Cryptophane-A],water solubility (in words),[1],poor (low micromolar)
COc1cc2c3cc1OCCOc1cc4c(cc1OC)Cc1cc5c(OC)cc1Cc1cc(c(OCc6cn(CCOCCOCCOCCOCCOCCOCCOCCOCCNC(=O)COCC(=O)N[C@@H](CS)C(=O)N[C@@H](CCCNC(=N)N)C(=O)NCC(=O)N[C@@H](CC(=O)O)C(=O)N[C@@H](CCCNC(=N)N)C(=O)NCC(=O)N[C@@H](CC(=O)O)C(=O)N[C@@H](CCCNC(=N)N)C(=O)NCC(=O)N[C@@H](CC(=O)O)C(=O)N[C@@H](CCCNC(=N)N)C(=O)NCC(=O)N[C@@H](CC(=O)O)C(=O)O)nn6)cc1C4)OCCOc1cc(c(cc1OC)Cc1cc(c(OC)cc1C3)OCCO5)C2 [III] (X1-CRGDRGDRGDRGD-OH; C-terminus assumed),water solubility (in words),Water solubility,limited solubility
c12c3c4c5c1c1c6c7c2c2c8c3c3c9c4c4c%10c5c5c1c1c6c6c%11c7c2c2c7c8c3c3c8c9c4c4c9c%10c5c5c1c1c6c6c%11c2c2c7c3c3c8c4c4c9c5c1c1c6c2c3c41 [fullerene C60],decrease in viability of HEK cells,HEK cells,10-50%
